# Measured values published in patent publication US12528826B2, “[1,4]oxazepino[2,3-c]quinolinone derivatives as BCL6 inhibitors” (Cancer Research Technology Limited, priority 2019, dated 2026).
# Target: T1, Trx-6×His-BCL6 (human BCL6 BTB domain covering amino-acid sequence 5-129) (Homo sapiens, UniProt P41182)
# T1 construct: made in house
# Test: HTRF assay (BCL6 / BCOR peptide)
# Type: binding
# Conditions: 1 nM Trx-6×His-BCL6, 300 nM BCOR-AF633 peptide, 2 hours incubation at room temperature
# Method: After 2 hours incubation at room temperature the plate was read on a Pherastar FSX (BMG Labtech) plate reader equipped with 337 nm laser excitation filter, a first emission filter at 620 nm and a second emission filter at 665 nm. The % inhibition at each concentration was calculated by normalising FRET ratio to the appropriate high (DMSO with all reagents) and low (DMSO without BCL6) controls.
row,SMILES,HTRF avg pIC50
1,"C[C@@H]1C[C@H](N(C)C)CN(c2ncc(Cl)c(Nc3ccc4c(c3)c3c(c(=O)n4C)OCC(F)(F)[C@H](C4CC4)N3)n2)C1 [Example 1h, (S)-10-((5-chloro-2-((3S,5R)-3-(dimethylamino)-5-methylpiperidin-1-yl)pyrimidin-4-yl)amino)-2-cyclopropyl-3,3-difluoro-7-methyl-1,2,3,4-tetrahydro-[1,4]oxazepino[2,3-c]quinolin-6(7H)-one]",8.44

# Same assay, conditions: 1 nM Trx-6×His-BCL6, 300 nM BCOR-AF633 peptide, 2 hours incubation at room temperature; read-out: HTRF avg pIC50 (converted)
row,IC50 [nM],SMILES
1,10,"Cn1c(=O)c2c(c3cc(Nc4nc(N5CCCC(C(F)F)C5)ncc4Cl)ccc31)N[C@@H](C1CC1)C(F)(F)CO2 (mixture of isomers) [Example 11r, (S)-10-((5-chloro-2-((R)-3-(difluoromethyl)piperidin-1-yl)pyrimidin-4-yl)amino)-2-cyclopropyl-3,3-difluoro-7-methyl-1,2,3,4-tetrahydro-[1,4]oxazepino[2,3-c]quinolin-6(7H)-one:(S)-10-((5-chloro-2-((S)-3-(difluoromethyl)piperidin-1-yl)pyrimidin-4-yl)amino)-2-cyclopropyl-3,3-difluoro-7-methyl-1,2,3,4-tetrahydro-[1,4]oxazepino[2,3-c]quinolin-6(7H)-one (1:1)]"
2,7.59,"Cn1c(=O)c2c(c3cc(Nc4nc(N5CC6CCC(C5)N6CC5CC5(F)F)ncc4Cl)ccc31)N[C@@H](C1CC1)C(F)(F)CO2 (stereo partly drawn) [Example 9za, (2S)-10-((5-chloro-2-(8-((2,2-difluorocyclopropyl)methyl)-3,8-diazabicyclo[3.2.1]octan-3-yl)pyrimidin-4-yl)amino)-2-cyclopropyl-3,3-difluoro-7-methyl-1,2,3,4-tetrahydro-[1,4]oxazepino[2,3-c]quinolin-6(7H)-one]"
3,5.13,"Cn1c(=O)c2c(c3cc(Nc4nc(N5CCCC(C#N)C5)ncc4Cl)ccc31)N[C@@H](C1CC1)C(F)(F)CO2 (stereo partly drawn) [Example 12x23, 1-(5-chloro-4-(((S)-2-cyclopropyl-3,3-difluoro-7-methyl-6-oxo-1,2,3,4,6,7-hexahydro-[1,4]oxazepino[2,3-c]quinolin-10-yl)amino)pyrimidin-2-yl)piperidine-3-carbonitrile]"
4,4.17,"C[C@H]1C[C@@H](CO)CN(c2ncc(Cl)c(Nc3ccc4c(c3)c3c(c(=O)n4C)OCC(F)(F)[C@H](C4CC4)N3)n2)C1 (racemic) [Example 9d, (S)-10-((5-chloro-2-((3R,5S)-3-(hydroxymethyl)-5-methylpiperidin-1-yl)pyrimidin-4-yl)amino)-2-cyclopropyl-3,3-difluoro-7-methyl-1,2,3,4-tetrahydro-[1,4]oxazepino[2,3-c]quinolin-6(7H)-one; (S)-10-((5-chloro-2-((3S,5R)-3-(hydroxymethyl)-5-methylpiperidin-1-yl)pyrimidin-4-yl)amino)-2-cyclopropyl-3,3-difluoro-7-methyl-1,2,3,4-tetrahydro-[1,4]oxazepino[2,3-c]quinolin-6(7H)-one]"
5,3.72,"Cn1c(=O)c2c(c3cc(Nc4nc(N5CCC(C#N)CC5)ncc4Cl)ccc31)N[C@@H](C1CC1)C(F)(F)CO2 [Example 12x38, (S)-1-(5-chloro-4-((2-cyclopropyl-3,3-difluoro-7-methyl-6-oxo-1,2,3,4,6,7-hexahydro-[1,4]oxazepino[2,3-c]quinolin-10-yl)amino)pyrimidin-2-yl)piperidine-4-carbonitrile]"
6,12.3,"Cn1c(=O)c2c(c3cc(Nc4nc(N5CC[C@@H](F)[C@@H](F)C5)ncc4Cl)ccc31)N[C@@H](C1CC1)C(F)(F)CO2 (racemic) [Example 10a, (S)-10-((5-chloro-2-((3S,4R)-3,4-difluoropiperidin-1-yl)pyrimidin-4-yl)amino)-2-cyclopropyl-3,3-difluoro-7-methyl-1,2,3,4-tetrahydro-[1,4]oxazepino[2,3-c]quinolin-6(7H)-one; (S)-10-((5-chloro-2-((3R,4S)-3,4-difluoropiperidin-1-yl)pyrimidin-4-yl)amino)-2-cyclopropyl-3,3-difluoro-7-methyl-1,2,3,4-tetrahydro-[1,4]oxazepino[2,3-c]quinolin-6(7H)-one]"
7,5.37,"CC1CC(CC(=O)N2CCC2)CN(c2ncc(Cl)c(Nc3ccc4c(c3)c3c(c(=O)n4C)OCC(F)(F)[C@H](C4CC4)N3)n2)C1 (single isomer, unassigned) [Example 12x16b]"
8,4.9,"CC(=O)N(C)[C@H]1CN(c2ncc(Cl)c(Nc3ccc4c(c3)c3c(c(=O)n4C)OCC(F)(F)[C@H](C4CC4)N3)n2)CCC1(F)F [Example 9n, N-((S)-1-(5-chloro-4-(((S)-2-cyclopropyl-3,3-difluoro-7-methyl-6-oxo-1,2,3,4,6,7-hexahydro-[1,4]oxazepino[2,3-c]quinolin-10-yl)amino)pyrimidin-2-yl)-4,4-difluoropiperidin-3-yl)-N-methylacetamide]"
9,14.1,"Cn1c(=O)c2c(c3cc(Nc4ncncc4Cl)ccc31)N[C@@H](C1CC1)C(F)(F)CO2 [Example 6a, (S)-10-((5-chloropyrimidin-4-yl)amino)-2-cyclopropyl-3,3-difluoro-7-methyl-1,2,3,4-tetrahydro-[1,4]oxazepino[2,3-c]quinolin-6(7H)-one]"
10,5.5,"Cn1c(=O)c2c(c3cc(Nc4nc(N5CCC(F)(F)C(C(=O)N6CCC6)C5)ncc4Cl)ccc31)N[C@@H](C1CC1)C(F)(F)CO2 (mixture of isomers) [Example 12x18, (2S)-10-((2-(3-(azetidine-1-carbonyl)-4,4-difluoropiperidin-1-yl)-5-chloropyrimidin-4-yl)amino)-2-cyclopropyl-3,3-difluoro-7-methyl-1,2,3,4-tetrahydro-[1,4]oxazepino[2,3-c]quinolin-6(7H)-one]"
11,9.33,"Cn1c(=O)c2c(c3cc(Nc4nc(N5CCC(F)(CO)CC5)ncc4Cl)ccc31)N[C@@H](C1CC1)C(F)(F)CO2 [Example 9o, (S)-10-((5-chloro-2-(4-fluoro-4-(hydroxymethyl)piperidin-1-yl)pyrimidin-4-yl)amino)-2-cyclopropyl-3,3-difluoro-7-methyl-1,2,3,4-tetrahydro-[1,4]oxazepino[2,3-c]quinolin-6(7H)-one]"
12,4.79,"Cn1c(=O)c2c(c3cc(Nc4nc(N5CC(F)C5)ncc4Cl)ccc31)N[C@@H](C1CC1)C(F)(F)CO2 [Example 11q, (S)-10-((5-chloro-2-(3-fluoroazetidin-1-yl)pyrimidin-4-yl)amino)-2-cyclopropyl-3,3-difluoro-7-methyl-1,2,3,4-tetrahydro-[1,4]oxazepino[2,3-c]quinolin-6(7H)-one]"
13,3.55,"Cn1c(=O)c2c(c3cc(Nc4nc(N5CCC(F)(F)C(CC(=O)N6CCC6)C5)ncc4Cl)ccc31)N[C@@H](C1CC1)C(F)(F)CO2 (mixture of isomers) [Example 12x21, (2S)-10-((2-(3-(2-(azetidin-1-yl)-2-oxoethyl)-4,4-difluoropiperidin-1-yl)-5-chloropyrimidin-4-yl)amino)-2-cyclopropyl-3,3-difluoro-7-methyl-1,2,3,4-tetrahydro-[1,4]oxazepino[2,3-c]quinolin-6(7H)-one]"
14,1.91,"Cn1c(=O)c2c(c3cc(Nc4nc(N5CCNC(C(F)F)C5)ncc4Cl)ccc31)N[C@@H](C1CC1)C(F)(F)CO2 (stereo partly drawn) [Example 12x26, (2S)-10-((5-chloro-2-(3-(difluoromethyl)piperazin-1-yl)pyrimidin-4-yl)amino)-2-cyclopropyl-3,3-difluoro-7-methyl-1,2,3,4-tetrahydro-[1,4]oxazepino[2,3-c]quinolin-6(7H)-one]"
15,3.24,"Cn1c(=O)c2c(c3cc(Nc4nc(N5C[C@H]6C[C@@H]5CO6)ncc4Cl)ccc31)N[C@@H](C1CC1)C(F)(F)CO2 [Example 1e, (S)-10-((2-((1R,4R)-2-oxa-5-azabicyclo[2.2.1]heptan-5-yl)-5-chloropyrimidin-4-yl)amino)-2-cyclopropyl-3,3-difluoro-7-methyl-1,2,3,4-tetrahydro-[1,4]oxazepino[2,3-c]quinolin-6(7H)-one]"
16,33.1,"CCC1CCCN(c2ncc(Cl)c(Nc3ccc4c(c3)c3c(c(=O)n4C)OCC(F)(F)[C@H](C4CC4)N3)n2)C1 (mixture of isomers) [Example 11b, (S)-10-((5-chloro-2-((R)-3-ethylpiperidin-1-yl)pyrimidin-4-yl)amino)-2-cyclopropyl-3,3-difluoro-7-methyl-1,2,3,4-tetrahydro-[1,4]oxazepino[2,3-c]quinolin-6(7H)-one:(S)-10-((5-chloro-2-((S)-3-ethylpiperidin-1-yl)pyrimidin-4-yl)amino)-2-cyclopropyl-3,3-difluoro-7-methyl-1,2,3,4-tetrahydro-[1,4]oxazepino[2,3-c]quinolin-6(7H)-one (1:1)]"
17,11.7,"CC1CCC(CO)N(c2ncc(Cl)c(Nc3ccc4c(c3)c3c(c(=O)n4C)OCC(F)(F)[C@H](C4CC4)N3)n2)C1 (stereo partly drawn) [Example 12x10, (2S)-10-((5-chloro-2-(2-(hydroxymethyl)-5-methylpiperidin-1-yl)pyrimidin-4-yl)amino)-2-cyclopropyl-3,3-difluoro-7-methyl-1,2,3,4-tetrahydro-[1,4]oxazepino[2,3-c]quinolin-6(7H)-one]"
18,2.04,"Cn1c(=O)c2c(c3cc(Nc4nc(N5CCN6CCCC6C5)ncc4Cl)ccc31)N[C@@H](C1CC1)C(F)(F)CO2 (mixture of isomers) [Example 12h, (S)-10-((5-chloro-2-((S)-hexahydropyrrolo[1,2-a]pyrazin-2(1H)-yl)pyrimidin-4-yl)amino)-2-cyclopropyl-3,3-difluoro-7-methyl-1,2,3,4-tetrahydro-[1,4]oxazepino[2,3-c]quinolin-6(7H)-one:(S)-10-((5-chloro-2-((R)-hexahydropyrrolo[1,2-a]pyrazin-2(1H)-yl)pyrimidin-4-yl)amino)-2-cyclopropyl-3,3-difluoro-7-methyl-1,2,3,4-tetrahydro-[1,4]oxazepino[2,3-c]quinolin-6(7H)-one (1:1)]"
